Entries after “also recorded” stand apart in the source; their conditions may differ.
Assays:
vasculature (flk1) = conditions: zebrafish, in vivo, 10 μM
Method: (§1) Wild-type age-matched embryos were arrayed into 48-well plates (˜5 embryos/well) of individual test compounds and exposed from 3-somites until 36 hpf. Three compound libraries were utilized: NINDS Custom Collection (1040), SpecPlus Collection (960) and BIOMOL ICCB Known Bioactives (480). […] In situ hybridization for runx1 and cmyb was performed to assess HSCs. Compounds were retested at 10 μM, 20 μM, and 50 μM. Stem cell specificity was assessed using flk1 at 36 hpf. PGE2, PGI2, dmPGE2 and all cox inhibitors (Sigma) were used at 10 μM to 20 μM.

wnt activity [1] = experiment: wnt reporter TOP:dGFP zebrafish embryos; format: in vivo; conditions: vs control
Description: Clinical experience in patients with APC mutations has shown that inhibition of prostaglandin synthesis results in decreased wnt mediated polyp formation. […] These interactions were examined in vivo using a wnt reporter zebrafish transgenic line, TOP:dGFP. At fifty-percent epiboly, embryos were subjected either to nothing (control), indomethacin, or PGE2, and the amount of wnt signaling activated in the embryo assessed by GFP induction driven from the wnt binding site. Analysis of alterations in GFP expression in the head was analyzed by in situ hybridization. […] FIG. 12.

runx1/cmyb+ AGM HSCs [2] = experiment: Heat shock wnt-pathway transgenic embryos treated with PG drugs: AGM HSC formation; format: in vivo, zebrafish; conditions: hs:wnt8 embryos heat shocked at five somites
Method: More specifically, Wnt signaling through its main transcriptional mediator β-catenin plays an important role in controlling tissue patterning, cell fate decisions, and proliferation in many embryonic contexts, including the development and differentiation of organs. […] Whether wnt signaling has a role during HSC formation in zebrafish was determined using heat shock inducible activators and repressors of the wnt pathway. Briefly, wnt-inducible embryos were harvested and heat shocked for twenty minutes at 38° C. Genotypes were sorted by GFP expression, and the AGM HSCs analyzed by runx1/cmyb expression in situ. […] This is the first evidence in any organism that wnt signaling is required for AGM HSC formation.
Additionally, indomethacin and dmPGE2 was used to investigate the interaction of the wnt and prostaglandin pathways during HSC development and in marrow recovery following injury. FIG. 13 reflects the potential points of interaction of the PG and wnt pathways. […] Furthermore, dmPGE2 can rescue the inhibitory effects of dkk activation on AGM HSC formation at 36 hpf, as shown by in situ hybridization for runx1/cmyb.

[3] = test system: kidney marrow precursor cell population; experiment: Kidney marrow recovery after irradiation in heat shock wnt transgenic adults treated with PG drugs; format: in vivo, zebrafish; conditions: hs:wnt8-GFP adults, day ten post-irradiation
Method: An irradiation recovery assay was also employed to investigate the role of wnt signaling in hematopoietic homeostasis in zebrafish. Transgenic fish expressing wnt-related genes were sublethally irradiated and heat shock gene induction was initiated by overnight incubation at 38° C. on day two post-irradiation. Kidney marrow was harvested at various timepoints post-irradiation as outlined previously for the prostaglandin experiments. FIG. 11. […] Inhibition of wnt signaling, by heat shock dkk or dnTCF, drastically alters the kinetics of marrow recovery and can result in the complete failure of marrow regeneration and lethality.
(§2) To determine if prostaglandin pathway manipulation can alter wnt activity in the kidney marrow repopulation in the adult, the effects of dmPGE2 and indomethacan was examined further in Top:dGFP lines. […] FIG. 14. To discern whether modulation of prostaglandin signaling can modify the wnt mediated effects on kidney marrow recovery following irradiation, wnt genes were activated by heat shock at 38° C. at two days post irradiation and then. exposure to prostaglandin pathway drugs at one day post heat shock. The hs:wnt8-GFP fish were exposed to indomethacin, while the dkk1, axin, and dnTCF transgenic fish were exposed to dmPGE2. Whole kidney marrow was analyzed by FACS on day ten post-irradiation.

mouse ES cells = experiment: ES cell hematopoietic differentiation assays (M3434 methylcellulose and OP9 colony assays); format: cell-based; conditions: indomethacin 20 μM (OP9) and 100 μM (GM)
Method: ES cell hematopoietic differentiation assays were performed as previously described. […] M3434 methylcellulose colony forming and OP9 colony assays were conducted on day 6 and analyzed at […], respectively. Colony type was identified by morphological analysis; duplicate chemical exposures were averaged to determine the reported colony number (n=3 replicates minimum).

cmyb/lmo2+ HSCs = experiment: Confocal quantification of HSCs in cmyb:GFP x lmo2:dsRed bigenic embryos; format: in vivo, zebrafish; conditions: 36 hpf live embryos
Method: A long-acting derivative, 16,16-dimethyl-PGE2 (dmPGE2, 10 μM) caused an increase in runx1/cmyb+ AGM HSCs in 78% of embryos examined (97/124). AGM HSCs were inhibited by indomethacin (10 μM) treatment in 90% of embryos analyzed (92/102). […] Transgenic cmyb:GFP zebrafish with green fluorescent HSCs and myeloid progenitor cells were crossed to lmo2:dsRed fish that have red fluorescent endothelial cells and HSCs to visualize the effects of chemical exposure in vivo. […] FIG. 3.
Live 36 hpf treated bigenic zebrafish embryos were embedded in 1% low-melting point agarose containing 0.4 mg/ml Tricaine-S for confocal imaging. cmyb-GFP transgenic reporter lines were created from a BAC containing the cmyb promoter genomic sequence (Galloway, Zhu, Lin, Zon, unpublished); lmo2:DsRed fish were created as described^27. For HSC quantification, cmyb/lmo2+ positive cells were counted in projections of z-stack images (n=10/treatment).

runx1/cmyb+ AGM HSCs [4] = conditions: for effect on AGM HSCs in zebrafish embryos (in words): exposure from three somites to 36 hpf, runx1/cmyb staining
Method: A chemical genetic screen was conducted to identify novel pathways that modulate definitive HSC formation during zebrafish embryogenesis. FIG. 1. Genes such as runx1 and cmyb, required for HSC development during mammalian hematopoiesis, are expressed in the ventral wall of the dorsal aorta in a region analogous to the mammalian AGM at thirty-six hours post-fertilization (hpf). […] Wild-type embryos were incubated with individual compounds from the three-somite stage until thirty-six hpf. Probes for runx1 and cmyb were combined and utilized to detect HSCs by in situ hybridization.
as §1, with “hpf.” for “hpf. Three compound libraries were utilized: NINDS Custom Collection (1040), SpecPlus Collection (960) and BIOMOL ICCB Known Bioactives (480).”
Qualitative scoring (# embryos with altered HSCs/# scored) of runx1/cmyb was conducted using the following criteria: Normal/unchanged=continuous line of runx1/cmyb+ endothelial cells and occasional hematopoietic clusters. Decreased/absent=reduction in runx1/cmyb+ cells, including the presence of large gaps in the line of HSCs, isolated positive cells, or absence of expression. Increased/excess=enhancement in runx1/cmyb^+ cells, including many HSC clusters, a thickened line of HSCs, or ectopic expression.

[5] = test system: CFU-S from murine bone marrow cells; experiment: Murine colony-forming units-spleen (CFU-S); format: in vivo, mouse
Method: Two independent BM samples were treated (n=5/treatment×2 replicates) for each variable. Recipient mice were lethally irradiated with a split dose of 10 Gy. 6×10^4 unfractionated dmPGE2 or control-treated BM cells were injected retro-orbitally into irradiated recipient mice. Spleens were dissected on day eight or twelve, weighed and fixed with Bouin's solution; hematopoietic colonies per spleen were counted. 1×10^5 cells/recipient were transplanted after treatment with the cox inhibitors. FACS sorted ckit^+sca1^+lineage^− BM cells were treated as above and transplanted at a dose of either 100 cells/recipient or 300 cells/recipient.

PGE2 formation = experiment: HPLC-tandem mass spectrometry of PGE2 in zebrafish embryos; format: in vivo; conditions: 36 hpf embryos, n=3; untreated 18+/−6
Method: PGE2 and the stable PGI2 metabolite, 6-keto-PGF1α, were measured using HPLC-tandem mass spectrometry. Ethylacetate extracts from homogenized embryos were spiked with the corresponding stable isotope labeled internal standards (d4-PGE2 and d4-6-keto PGF1α) and allowed to react with methoxylamine. The following mass transitions were monitored: m/z 384→272 (PGE), m/z 398→368 (6-keto PGF1α and TxB2).

wnt activity [6] = experiment: wnt activity in kidney marrow of irradiated Top:dGFP adults; format: in vivo, zebrafish; conditions: day three post irradiation
Method: as §2

runx1, cmyb expression = experiment: qPCR of HSC gene expression in treated zebrafish embryos; format: in vivo
[7] = test system: ES cell-derived embryoid bodies; experiment: Hematopoietic colonies from ES cell-derived embryoid bodies treated with DEAB or RA; format: cell-based, mouse; conditions: added to EBs between days two to three
Description: DEAB and RA also affected the formation of mouse hematopoietic progenitors arising from ES cell-derived embryoid bodies (EBs). […] See also Davidson et al., 425 Nature 300-06 (2003); Davidson & Zon, 292(2) Devel. Biol. 506-18 (2006).

embryonic hematopoiesis = experiment: RA / DEAB treatment of wild-type and kgg zebrafish embryos; format: in vivo
wnt activity [8] = experiment: wnt activity in the AGM of TOP:gal mice; conditions: mouse, in vivo

Q: What does the source list for `COc1ccc2c(c1)c(CC(=O)O)c(C)n2C(=O)c1ccc(Cl)cc1` [Indomethacin]?
A: embryos with slightly altered intersomitic vessels (vasculature (flk1)): 30%; embryos with slightly altered intersomitic vessels (# altered/# examined) (vasculature (flk1)): 15/49; wnt activity (GFP expression) in TOP:dGFP embryos (wnt activity [1]; listed as indo): virtual absence of wnt activity; wnt activity (GFP expression) in TOP:dGFP embryos (wnt activity [1]; listed as indomethacin): severely reduced GFP expression; effect on wnt8-mediated enhancement of runx1/cmyb expression / HSC induction (runx1/cmyb+ AGM HSCs [2]; listed as indo): reversed; effect on wnt8-mediated enhancement of runx1/cmyb expression / HSC induction (runx1/cmyb+ AGM HSCs [2]; listed as indomethacin): can be blocked; effect on wnt-mediated enhancement of the kidney marrow precursor cell population ([3]; listed as Indo): blocked; effect on wnt-mediated enhancement of the kidney marrow precursor cell population ([3]; listed as indomethacin): severely diminish; colony growth (mouse ES cells): inhibited colony growth; HSC numbers along the floor of the aorta by confocal microscopy (in words) (cmyb/lmo2+ HSCs): significantly decreased numbers of HSCs; embryos with AGM HSCs inhibited (runx1/cmyb+ AGM HSCs [4]; 10 μM): 90%; decreased runx1/cmyb+ HSCs (# embryos altered/# scored) (runx1/cmyb+ AGM HSCs [4]; 10 μM, 36 hpf): 92/102; effect on AGM HSCs in zebrafish embryos (in words) (runx1/cmyb+ AGM HSCs [4]): reduced stem cells in the aorta; number of CFU-S12, decrease ([5]; WBM ex vivo 1 μM/10^6 cells, 1×10^5 cells transplanted): 70%; CFU-S12 Colony Number ([5]; Whole Marrow, 100000 cells transplanted, 1 μM/10^6 cells ex vivo, EtOH 8.8 (2.1)): 2.5 (1.4); PGE2 formation after treatment (PGE2 formation): < 2 pg/50 embryos; wnt activity (GFP) in kidney marrow of Top:dGFP adults (wnt activity [6]): inhibited GFP expression; cmyb expression by qPCR (in words) (runx1, cmyb expression; 10 μM): significant alterations; runx1 expression by qPCR, reduction (runx1, cmyb expression; indomethacin 10 μM): 50%

Q: For `CCN(CC)c1ccc(C=O)cc1` [DEAB], which “increase in 'primitive' erythroid colonies (CFU-Ep)” value [7] is on record?
A: The value was “five-eight fold”.

Q: What about the “erythroid cells in wild-type embryos” value (embryonic hematopoiesis) of the same compound?
A: Its value is “induced an expansion of erythroid cells”.

Q: What about the “expression of hoxa9a in kgg embryos” value (embryonic hematopoiesis) of the same compound?
A: Its value is “failed to rescue”.

Q: What about the “hematopoiesis in kgg mutants” value (embryonic hematopoiesis) of the same compound?
A: The value was “restored hematopoiesis”.

Q: For `CCCCC[C@H](O)/C=C/[C@H]1[C@H](O)CC(=O)[C@@H]1C/C=C\CCCC(=O)O` [PGE2, prostaglandin E2], which “wnt activity (GFP expression) in TOP:dGFP embryos” value (wnt activity [1]) is on record?
A: The value was “markedly enhanced wnt activity”.

Q: And the “wnt activity in the AGM of TOP:gal mice” value (wnt activity [8])?
A: Its value is “induced wnt activity”.

Q: What about the “increased runx1/cmyb expression (# embryos altered/# scored)” value (runx1/cmyb+ AGM HSCs [4]; 20 μM, 36 hpf) of the same compound?
A: Its value is 25/49.

Q: And the “effect on AGM HSCs in zebrafish embryos (in words)” value (runx1/cmyb+ AGM HSCs [4])?
A: Its value is “stronger expression of runx1/cmyb than PGI2; also recorded: increase moderately”.

Source: patent US10272110B2, “Methods for promoting HSC engraftment” (CHILDREN'S MEDICAL CENTER CORPORATION, priority 2006, dated 2019)
